In this assay the target is T1, F508delCFTR (Homo sapiens, UniProt P13569, DEL508-508).
T1 construct: expressed in transfected cells; host or cells: CFBE41o- human lung-derived epithelial cells (CFBE4lo-F508delCFTR-HRP), doxycycline-inducible
Kind of assay: Cell Surface Expression-Horse Radish Peroxidase (CSE-HRP) Assay.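 As to Maximum % activity (with co-corrector): co-corrector and positive control are both the same reference corrector at 2 µM.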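 As to Maximum % activity (without co-corrector): percent of the 2 µM on-plate positive control corrector response above DMSO.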 It counts as cell-based. To be noted: for Emax / Maximum % activity (with co-corrector): maximum at any tested concentration, normalized to on-plate positive control; for Emax: read-out: Maximum % activity (without co-corrector); for Maximum % activity (with co-corrector): with co-corrector (2 μM).

[1] abbreviates: test compound without co-corrector.
[2] abbreviates: test compound without co-corrector, read-out: EC50 (without co-corrector).
[3] abbreviates: with co-corrector (2 μM of 3-[(2R,4R)-4-({[1-(2,2-difluoro-1,3-benzodioxol-5-yl)cyclopropyl]carbonyl}amino)-7-methoxy-3,4-dihydro-2H-chromen-2-yl]benzoic acid), read-out: EC50 (with co-corrector).

Like-named read-outs stand apart in the source and are kept apart here.

For orientation: EC50 means the concentration giving half of the maximal effect.

T1 sequence (P13569 with tags, fused parts or gaps DEL508-508): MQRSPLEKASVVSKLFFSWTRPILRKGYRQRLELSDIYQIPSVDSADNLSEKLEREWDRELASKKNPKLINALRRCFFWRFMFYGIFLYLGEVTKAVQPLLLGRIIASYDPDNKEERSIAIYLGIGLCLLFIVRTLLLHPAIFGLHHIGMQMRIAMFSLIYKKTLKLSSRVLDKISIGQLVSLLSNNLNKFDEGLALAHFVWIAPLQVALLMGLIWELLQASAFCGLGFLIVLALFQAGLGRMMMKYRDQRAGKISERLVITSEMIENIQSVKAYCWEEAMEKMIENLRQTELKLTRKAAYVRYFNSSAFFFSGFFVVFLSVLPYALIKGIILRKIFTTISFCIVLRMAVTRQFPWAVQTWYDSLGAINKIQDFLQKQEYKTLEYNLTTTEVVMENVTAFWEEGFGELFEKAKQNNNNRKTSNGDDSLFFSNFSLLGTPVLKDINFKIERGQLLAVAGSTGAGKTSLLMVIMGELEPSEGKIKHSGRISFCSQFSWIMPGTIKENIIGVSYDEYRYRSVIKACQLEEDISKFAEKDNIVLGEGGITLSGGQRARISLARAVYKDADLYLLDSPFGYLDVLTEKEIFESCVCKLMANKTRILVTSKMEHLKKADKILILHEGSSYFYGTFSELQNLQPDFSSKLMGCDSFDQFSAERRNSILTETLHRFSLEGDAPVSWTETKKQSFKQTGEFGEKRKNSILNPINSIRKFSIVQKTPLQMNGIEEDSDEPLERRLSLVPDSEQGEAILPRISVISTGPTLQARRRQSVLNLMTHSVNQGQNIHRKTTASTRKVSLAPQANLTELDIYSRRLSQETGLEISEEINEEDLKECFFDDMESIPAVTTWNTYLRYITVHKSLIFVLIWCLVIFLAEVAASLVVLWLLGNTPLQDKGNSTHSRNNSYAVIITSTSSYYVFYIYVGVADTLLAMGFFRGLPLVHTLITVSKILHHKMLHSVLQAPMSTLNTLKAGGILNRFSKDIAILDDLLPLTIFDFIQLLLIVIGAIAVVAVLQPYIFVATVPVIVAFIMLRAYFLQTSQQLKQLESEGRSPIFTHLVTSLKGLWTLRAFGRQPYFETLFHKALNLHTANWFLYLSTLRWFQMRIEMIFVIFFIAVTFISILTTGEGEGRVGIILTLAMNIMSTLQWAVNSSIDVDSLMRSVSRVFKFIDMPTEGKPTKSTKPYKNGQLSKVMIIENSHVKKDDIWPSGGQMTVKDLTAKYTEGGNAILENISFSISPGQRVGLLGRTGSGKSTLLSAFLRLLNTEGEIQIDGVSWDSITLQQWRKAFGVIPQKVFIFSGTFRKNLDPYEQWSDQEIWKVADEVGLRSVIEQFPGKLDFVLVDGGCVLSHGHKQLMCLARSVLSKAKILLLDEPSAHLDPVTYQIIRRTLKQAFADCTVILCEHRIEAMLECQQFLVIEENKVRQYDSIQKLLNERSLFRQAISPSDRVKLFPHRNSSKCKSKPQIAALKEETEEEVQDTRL

For the compound `COc1ccc(C(C)(C)C)cc1CN[C@H]1[C@H](C(C)(C)C)[C@@H](C(=O)O)N(C(=O)C2CCCCC2C)[C@H]1c1ccccc1` (stereo partly drawn) [III-195], the “Maximum % activity (with co-corrector)” value is given as “+++ (≥350)”. Under setting [1], the Emax is above 200%. Moreover, the EC50 under setting [2] was below 1000 nM. Besides, under setting [3], the half-maximal effective concentration (EC50) is below 1000 nM.

As for `COc1ccc(C(F)(F)F)cc1CN[C@H]1[C@H](C(C)(C)C)[C@@H](C(=O)O)N(C(=O)C2CC(C)CC(C)C2)[C@H]1c1ccccc1` (stereo partly drawn) [III-196], the “Maximum % activity (with co-corrector)” value is “+++ (≥350)”. Besides, the Emax under setting [1] fell in the range of 100 to 200%. Further, the EC50 under setting [2] is below 1000 nM. Also, under setting [3], the half-maximal effective concentration (EC50) is below 1000 nM.

`COc1ccc(C(F)(F)F)cc1CN[C@H]1[C@H](C(C)(C)C)[C@@H](C(=O)O)N(C(=O)C2CCC(C)(C)C2)[C@H]1c1ccccc1` (stereo partly drawn) [III-197]: the “Maximum % activity (with co-corrector)” value is “+++ (≥350)”. In addition, under setting [1], the Emax was in the range of 100 to 200%. Also, under setting [2], the EC50 was below 1000 nM. In addition, under setting [3], the EC50 was below 1000 nM.

As for `COc1ccc(C(F)(F)F)cc1CN[C@H]1[C@H](C(C)(C)C)[C@@H](C(=O)O)N(C(=O)C2CCC(C)C2)[C@H]1c1ccccc1` (stereo partly drawn) [III-198], the “Maximum % activity (with co-corrector)” value is recorded as “+++ (≥350)”. Besides, the Emax under setting [1] is above 200%. Also, under setting [2], the EC50 lay in the range of 1000 to 10000 nM. Further, the half-maximal effective concentration (EC50) under setting [3] was below 1000 nM.

As to `COc1ccc(C(F)(F)F)cc1CN[C@@H]1[C@@H](C(C)(C)C)[C@H](C(=O)O)N(C(=O)C2CCCCC2)[C@H]1c1ccccc1` [III-199], the “Maximum % activity (with co-corrector)” value is “++ (≥150 and <350)”. Besides, the Emax under setting [1] is below 100%. In addition, the EC50 under setting [2] was 1000 to 10000 nM. Besides, the EC50 under setting [3] fell in the range of 1000 to 10000 nM.

`COc1ncc(C(F)(F)F)cc1CN[C@H]1[C@H](C(C)(C)C)[C@@H](C(=O)O)N(C(=O)[C@@H]2OCC[C@@H]2Cn2cccn2)[C@H]1c1ccccc1` [III-200]: the “Maximum % activity (with co-corrector)” value was “++ (≥150 and <350)”. Further, under setting [1], the Emax is below 100%. In addition, the 50% effective concentration (EC50) under setting [2] is above 10000 nM. The EC50 under setting [3] was in the range of 1000 to 10000 nM.

On to `COc1ncc(C(F)(F)F)cc1CN[C@H]1[C@H](C(C)(C)C)[C@@H](C(=O)O)N(C(=O)C2CC(C)CC(C)C2)[C@H]1c1ccccc1` (stereo partly drawn) [III-201], for which the “Maximum % activity (with co-corrector)” value was “+++ (≥350)”. Further, the Emax under setting [1] was in the range of 100 to 200%. Further, under setting [2], the EC50 was below 1000 nM. Besides, the 50% effective concentration (EC50) under setting [3] was below 1000 nM.

For `COc1ccc(C23CC(C2)C3)cc1CN[C@H]1[C@H](C(C)(C)C)[C@@H](C(=O)O)N(C(=O)C2CCCCC2)[C@H]1c1ccccc1` [III-202], the “Maximum % activity (with co-corrector)” value is “+++ (≥350)”. For the same compound, the Emax under setting [1] is above 200%. For the same compound, under setting [2], the concentration giving a half-maximal response (EC50) is below 1000 nM. Moreover, the EC50 under setting [3] was below 1000 nM.

In the case of `COc1ccc(C(C)(C)C)cc1CN[C@H]1[C@H](C(C)(C)C)[C@@H](C(=O)O)N(C(=O)C2CCCC(C)(C)C2)[C@H]1c1ccccc1` (stereo partly drawn) [III-203], the “Maximum % activity (with co-corrector)” value is given as “+++ (≥350)”. The Emax under setting [1] is above 200%. Moreover, the EC50 under setting [2] is below 1000 nM. In addition, the EC50 under setting [3] is below 1000 nM.

For `COc1ccc(C(C)(C)C)cc1CN[C@H]1[C@H](C(C)(C)C)[C@@H](C(=O)O)N(C(=O)C2CCCC2(C)C)[C@H]1c1ccccc1` (stereo partly drawn) [III-204], the “Maximum % activity (with co-corrector)” value is “+++ (≥350)”. Also, the Emax under setting [1] is above 200%. Besides, the half-maximal effective concentration (EC50) under setting [2] was below 1000 nM. For the same compound, the EC50 under setting [3] was below 1000 nM.

For the compound `COc1ccc(C(C)(C)C)cc1CN[C@H]1[C@H](C(C)(C)C)[C@@H](C(=O)O)N(C(=O)C2CCCCC2C)[C@H]1c1cccnc1N(C)C` (stereo partly drawn) [III-205], the “Maximum % activity (with co-corrector)” value was “+++ (≥350)”. Besides, the Emax under setting [1] is above 200%. For the same compound, the 50% effective concentration (EC50) under setting [2] lay in the range of 1000 to 10000 nM. For the same compound, under setting [3], the EC50 was below 1000 nM.

With `COc1ccc(C(C)(C)C)cc1CN[C@H]1[C@H](C(C)(C)C)[C@@H](C(=O)O)N(C(=O)C2CCCC(C(F)(F)F)C2)[C@H]1c1cccnc1N(C)C` (stereo partly drawn) [III-206], the “Maximum % activity (with co-corrector)” value is on record as “+++ (≥350)”. The Emax under setting [1] was above 200%. The half-maximal effective concentration (EC50) under setting [2] fell in the range of 1000 to 10000 nM. In addition, the half-maximal effective concentration (EC50) under setting [3] was below 1000 nM.

The values above are taken from patent publication US20180099931A1 (AbbVie S.à.r.l., priority 2016, published 2018).
